Paper PMC2792720, “Binding of NIR-conPK and NIR-6T to Astrocytomas and Microglial Cells: Evidence for a Protein Related to TSPO” (PLoS ONE, 2009)

Biological target: T1, TSPO (Mus musculus, UniProt P50637)
T1 construct: mitochondrial-enriched membranes from DBT cells were prepared by lysing cells with ice-cold homogenization buffer; endogenous in cells; host or cells: DBT mouse astrocytoma cells (mitochondrial-enriched membranes / homogenates), untreated or cytokine-treated
Assay: Filtration radioligand binding assay, [^3H]-PK 11195 binding to DBT cell homogenates
Design: Bmax: unit not given here
Experimental: Enriched membranes were prepared according to [28]. Briefly, mitochondrial-enriched membranes from DBT cells were prepared by lysing cells with ice-cold homogenization buffer (50 mM Tris, 1 mM EDTA and 3 mM MgCl2), followed by dounce homogenization (five gentle strokes). Homogenates were centrifuged (40,000×g, 15 min, 4°C) and cell pellet resuspended in 0.5 ml homogenization buffer, re-homogenized by dounce (five gentle strokes while on ice) and centrifuged again (40,000×g, 15 min, 4°C). Cell pellets were stored at −80°C until further use. Radioligand binding assays were performed in silanized glass test tubes (Kimble Glass Inc.). The following components were added: 50 µl of non-radiolabeled DAA1106 or PK 11195, 50 µl of [N-methyl-^3H]-PK 11195 (PerkinElmer, Boston MA; 250 µCi, 84.8 Ci/mmol) and 100 µl of protein (50 µg, which started the incubation) for a total volume of 200 µl in binding buffer (50 mM Tris, 1 mM EDTA, 3 mM MgCl2 and 0.1% BSA), all of which was placed in a water bath (30°C) with mild agitation for 1 hr. Incubation was stopped by rapid filtration and rinsing with ice-cold binding buffer, using the Brandel harvester (Gaithersburg, MD) and Whatman GFB filter paper (Brandel, Gaithersburg MD). Filters were then transferred to 7 ml glass scintillation vials (VWR, West Chester PA). Five ml of Ecoscint XR scintillation fluid (National Diagnostics, Atlanta, GA) was added, followed by 10 sec vortexing and ∼18 hrs incubation at room temperature prior to determining the radioactivity with a scintillation counter (PerkinElmer, Boston MA).
Data are expressed as n = number of determinations (three per independent experiment). Statistical analysis, Kd and Ki values were calculated using non-linear regression with a one binding site hyperbola, where X is the concentration of the ligand, Y is specific binding and Bmax and Kd are determined using this equation: Y = Bmax X/Kd+X calculated by GraphPad Prism 4.

## COc1ccc(OC)c(CN(C(C)=O)c2cc(F)ccc2Oc2ccccc2)c1 [DAA1106]
DBT cell homogenates, read-out: Ki, competition for [^3H]-PK 11195 binding
  Ki: 0.2 nM

## [3H]CN(C(=O)c1cc2ccccc2c(-c2ccccc2Cl)n1)C(C)CC (centres unmarked) [[^3H]-PK 11195, [N-methyl-^3H]-PK 11195]
DBT cell homogenates, untreated cells
  amount of TSPO detected with [^3H]-PK 11195 (Bmax): 14 pmol of TSPO per gram of protein
Homogenates of DBT cells treated with IFNγ (100 Ui/ml), 18–24 hrs
  Bmax: 17.0+/−2.6
Homogenates of DBT cells treated with IFNγ+TNFα, 18–24 hrs
  Bmax: 17.6+/−2.4
Homogenates of DBT cells treated with TGFβ2 (1 ng/ml), 18–24 hrs
  Bmax: 22.1+/−4.7
Homogenates of DBT cells treated with TNFα (5 ng/ml), 18–24 hrs
  Bmax: 17.4+/−2.9
Homogenates of DBT cells, Control (vehicle, 18–24 hrs)
  Bmax: 14.0+/−1.1

## CCC(C)N(C)C(=O)c1cc2ccccc2c(-c2ccccc2Cl)n1 (centres unmarked) [PK 11195]
DBT cell homogenates, read-out: EC50, competition for [^3H]-PK 11195 binding
  EC50: 93 nM
